From ChEMBL document CHEMBL1201862, “PubChem BioAssay data set” (2004)
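Cultured in 96-well plates, cells were exposed to test compound for 48 hours across five concentrations. Abbreviation: GI50, concentration required for 50% inhibition of growth.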 Activity calls are given as the source filed them. Rule as the data show it: active = GI50 up to about 1.1 µM and inactive = higher.

Experiments:
Test in all cases: growth of human tumour cells (NCI), 48 h
[1] = system: DLD-1
[2] = system: DMS-114
[3] = system: HOP-18
[4] = system: KM-20L2
[5] = system: LXFL 529
[6] = system: M19-MEL
[7] = system: RXF 631
[8] = system: SNB-78
[9] = system: XF498

Measured: GI50

O=C(CN1CCN(c2ccccc2)CC1)N1CCc2c([nH]c3ccccc23)C1c1cccnc1 (stereo unspecified)
inactive: [1] > 53 µM | [2] 26.9 µM | [3] > 100 µM | [4] > 100 µM | [5] 71.9 µM | [6] > 95.9 µM | [7] 33.3 µM | [8] 13.5 µM | [9] 24.1 µM

CCCCCCCCCCSS(=O)(=O)c1ccc(C)cc1
inactive: [1] 12.5 µM | [2] 8.69 µM | [3] 17.9 µM | [4] 16.6 µM | [5] 13.6 µM | [6] 11.2 µM | [7] 7.28 µM | [8] 10.9 µM | [9] 13.3 µM

c1ccc(CN2CCc3[nH]c4ccccc4c3C2)cc1
inactive: [1] 37.8 µM | [2] 19.8 µM | [3] 99.8 µM | [4] 15 µM | [5] 22.9 µM | [6] 26.5 µM | [7] 18.8 µM | [8] 35.6 µM | [9] 24.2 µM

NNC(=O)C(=O)N/N=C1/CCCC1C(=O)CCC(=O)Nc1ccc(Cl)cc1 (stereo unspecified)
inactive: [1] > 100 µM | [2] 63 µM | [3] > 100 µM | [4] 6.04 µM | [5] 20.6 µM | [6] 89.3 µM | [7] > 100 µM | [8] > 100 µM | [9] > 100 µM
